Reference: publication PMC4684281, “Antitumor Effects and Mechanism of Novel Emodin Rhamnoside Derivatives against Human Cancer Cells In Vitro” (PLoS ONE, 2015)
Several values for one entry are separate records, joined by “and”; a condition that tells them apart may be missing. Equal values may be shown once. Read-outs that look alike come from different tables or passages of the source.

Tests used:
HepG2 cells [1] = test: Flow cytometry apoptosis analysis (Annexin V/7-AAD), HepG2; format: cell-based, Human; conditions: 48h (Fig 7 legend: 72h); for Early apoptosis: control 6.16±2.20; for Late apoptosis: control 10.71±1.42; for Living cell: control 79.87±1.84
Experimental: Flow cytometry analysis was determined using Annexin V-APC/7-AAD Apoptosis Detection Kit (BD Parmagen, U.S.A). HepG2 cells were inoculated at a density of 3×10^5/well in 6-well plates, and allowed to attach at 37°C for 24 hours. Afterwards, cells were treated with specific concentration EM-d-Rha, and cultured and harvested as described previously. Cells of each sample were resuspended in […] cold binding buffer before adding 2.5μL Annexin V-APC conjugate and 5μL 7-AAD solution. Then cells were incubated for 15 min on ice in the dark. Cell suspension was diluted to a final volume of 250μL with ice-cold, 1× Annexin V Binding Buffer. The assay was conducted by flow cytometry (BD FACSCalibur,USA). Scatter plots were generated using Cell Quest pro software (BD Biosciences, San Jose, CA). The experiment was repeated three times.

L02 normal liver cells = test: MTT cell viability assay, L02; format: cell-based; conditions: Homo sapiens; MTT at 72h, n=3, mean±S.E.M; read-out: IC50 for EM-d-Rha, L02
Experimental: (§1) The viability of cancer cells was evaluated by MTT assay. Briefly, cells were inoculated in 96-well culture plates at the density of 1×10^4/well with complete medium containing 10% fetal calf serum in a final volume of 0.2 mL. Cells were incubated at 37°C for at least 24 hours to allow optimal attachment. When the cells reached 60% confluence, they were treated with Cisplatin, HCPT and emodin rhamnopyranosides derivatives in various concentrations, and incubated in a humidity-controlled 5%CO2 incubator at 37°C for 72 hours. Medium were exchanged once every 24 hours. Cell control group and blank group were set up in the same manner, with each group having six parallel wells. Cell survival was assessed by directly adding 22 μL of 5mg/mL MTT to 0.2 mL medium. After three hours, the formazan precipitate was dissolved in 200μL isopropanol per well, and completely mixed under room temperature. Afterwards, the optical density of each well was detected at 570 nm wavelength by iMark microplate reader (Bio-rad,USA). This experiment was repeated at least three times.

A549 cells = test: MTT cell viability assay, A549; format: cell-based, Human; conditions: for IC50: A549
Experimental: as §1

HepG2 cells [2] = test: Cell cycle analysis (PI staining); format: cell-based, Human; conditions: 48h; for Percentage of cell cycle distribution, G2/M: control 9.68±3.46%; for Percentage of cell cycle distribution, G0/G1: control 67.48±3.94%
Experimental: HepG2 cells in logarithmic growth phase were inoculated in 10cm culture plates at density of 5×10^5 cells and incubated overnight and allowed to attach. After being exposed to EM-d-Rha at specific concentrations for 48h, cells were harvested and washed with cold PBS twice. Then the collected cells were fixed with 1mL PBS and 3mL cold 100% ethanol at 4°C overnight. After that, the cells were again harvested by centrifugation at 300×g for 10 min. The cells were washed with cold PBS and re-suspended in 450 μL PBS, and then treated with 50μL ribonuclease (RNase,10mg/mL) at 37°C for 15min. 500μL of propidium iodide (PI, 50μg/ml) was added to the samples. After the cells were incubated for 30 min at 4°C in the dark, the cell cycle distribution was measured using an BD FACSCalibur Flow cytometer (BD Biosciences, USA), and 10,000cells were counted for each sample. The percentage of cells in different phases of the cell cycle was analyzed by flow Jo (BD Biosciences, USA). The experiment was repeated three times.

[3] = HepG2, 10μM, listed as EM-d-Rha

CC(=O)O[C@@H]1[C@@H](O[C@@H]2O[C@@H](C)[C@H](O)[C@@H](OC(C)=O)[C@H]2OC(C)=O)[C@H](C)O[C@@H](Oc2cc(O)c3c(c2)C(=O)c2cc(C)cc(O)c2C3=O)[C@@H]1OC(C)=O [S-8, 3-(2”,3”-Di-O-acetyl-α-L-rhamnopyranosyl-(1→4)-2’,3’-di-O-acetyl-α-L-rhamnopyranosyl)-emodin]
Early apoptosis (HepG2 cells [1]; HepG2, 2.5μM): 40.40±5.70 %
Late apoptosis (HepG2 cells [1]; HepG2, 2.5μM): 7.50±1.04%
Living cell (HepG2 cells [1]; HepG2, 2.5μM): 51.20±5.10 %
Early apoptosis (HepG2 cells [1]; HepG2, 5μM): 45.20±4.17 %
Late apoptosis (HepG2 cells [1]; HepG2, 5μM): 17.53±3.16%
Living cell (HepG2 cells [1]; HepG2, 5μM): 36.40±3.23 %
Early apoptosis (HepG2 cells [1]; [3]): 78.77% and 78.77±1.22 %
Late apoptosis (HepG2 cells [1]; HepG2, 10μM): 4.22±1.63%
Living cell (HepG2 cells [1]; [3]): 16.53% and 16.53±0.68 %
IC50 (L02 normal liver cells): 19.7 ± 1.7 µM
IC50 (A549 cells; Homo sapiens, MTT at 72h, n=3, mean±S.E.M, read-out: IC50 for EM-d-Rha, A549): 1.75 ± 0.63 µM
IC50 (A549 cells; Homo sapiens, MTT, 72 hours, read-out: IC50 values, A549): 2.6 µg/mL
inhibition at 0.1 µM (A549 cells; Homo sapiens, A549, 0.1μM, MTT 72h, read-out: The inhibition rate of EM-d-Rha): 13.95 ± 0.02%
inhibition at 0.5 µM (A549 cells; Homo sapiens, A549, 0.5μM, MTT 72h, read-out: The inhibition rate of EM-d-Rha): 27.3 ± 2.19%
inhibition at 2.5 µM (A549 cells; Homo sapiens, A549, 2.5μM, MTT 72h, read-out: The inhibition rate of EM-d-Rha): 33.7 ± 1.46%
inhibition at 12.5 µM (A549 cells; Homo sapiens, A549, 12.5μM, MTT 72h, read-out: The inhibition rate of EM-d-Rha): 63.5 ± 1.03%
inhibition at 62.5 µM (A549 cells; Homo sapiens, A549, 62.5μM, MTT 72h, read-out: The inhibition rate of EM-d-Rha): 75.96 ± 0.58%
Decrease of IC50 compared to the IC50 of emodin, A549 (A549 cells; from Table 1): 7.52 fold
Percentage of cell cycle distribution, G2/M (HepG2 cells [2]; HepG2, 2.5μM): 7.01±1.73%
Percentage of cell cycle distribution, S (HepG2 cells [2]; HepG2, 2.5μM, control 23.19±2.18%, listed as EM-d-Rha): 28.59% and 28.59±3.75%
Percentage of cell cycle distribution, G0/G1 (HepG2 cells [2]; HepG2, 2.5μM): 61.37±2.16%
Percentage of cell cycle distribution, G2/M (HepG2 cells [2]; HepG2, 5.0μM): 10.31±3.08%
Percentage of cell cycle distribution, G0/G1 (HepG2 cells [2]; HepG2, 5.0μM): 51.03±8.84%
Percentage of cell cycle distribution, G2/M (HepG2 cells [2]; HepG2, 10.0μM): 7.96±2.07%
Percentage of cell cycle distribution, G0/G1 (HepG2 cells [2]; HepG2, 10.0μM): 52.35±9.37%
